Some test systems named below: HOP-62; SF-539; NCI-H522; SN12C; 786-0; A549; Malme-3M; OVCAR-8; KM12; UO-31; SNB-19; UACC-62; MOLT-4; RPMI-8226; CAKI-1; HCT-116; SF-268.
Common to all, as to experiment: DTP human tumour cell line panel, 48 h

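Protocol summary: plate cells (96-well), add compound at 5 concentrations, incubate 48 h, interpolate endpoints linearly. GI50 marks 50% less growth.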 Active and inactive are the calls of the source. No stated cut-off is given here; in the data, active = GI50 up to about 1.1 µM and inactive = higher.

One may read the GI50 as the concentration at which growth is held to half of that of the control. With `COc1cccc(-c2cc(O)c3cc(OC)c(OC)cc3n2)c1`, the GI50 in the test on HOP-62 was 42.1 µM (inactive); in the test on SF-539 it was 26.4 µM (inactive); in the test on NCI-H522 it was 19.8 µM (inactive); with SN12C, 68.7 µM (inactive); with 786-0, 46.6 µM (inactive); in the test on A549, 47.4 µM (inactive). The GI50 in the test with Malme-3M is 35.7 µM (inactive); in the test with OVCAR-8, 45.2 µM (inactive); in the test with KM12 it was 24.2 µM (inactive); with UO-31 it was 41.6 µM (inactive); in the test on SNB-19, 58.2 µM (inactive); in the test with UACC-62, 43.6 µM (inactive). The GI50 was 40.6 µM (inactive) in the test on MOLT-4 and 45.3 µM (inactive) with RPMI-8226.
Regarding `C/C(=N\N(c1ccccc1)c1ccccc1)c1c(O)cc(C)oc1=O`, the GI50 with HOP-62 was > 100 µM (inactive); in the test with SF-539, 67.8 µM (inactive); in the test on NCI-H522, > 100 µM (inactive); with CAKI-1, 90.2 µM (inactive); in the test on HCT-116, 45.1 µM (inactive); in the test with SN12C, > 100 µM (inactive). For the same compound, the GI50 in the test on 786-0 was > 100 µM (inactive); in the test with A549, 75 µM (inactive); with Malme-3M it was > 100 µM (inactive); in the test with OVCAR-8 it was > 100 µM (inactive); in the test on KM12, > 100 µM (inactive); in the test with UO-31, 25.7 µM (inactive). Also, the GI50 in the test on SNB-19 was > 100 µM (inactive); in the test with UACC-62, 54 µM (inactive); in the test on SF-268, > 100 µM (inactive); in the test on MOLT-4, 54.2 µM (inactive).
With `O=[N+]([O-])c1cccc(C2SCc3nc4ccccc4n32)c1` (stereo unspecified), the GI50 in the test on HOP-62 is > 100 µM (inactive); in the test with SF-539, > 100 µM (inactive); with CAKI-1, 21.8 µM (inactive); in the test with SN12C it was 97.3 µM (inactive); in the test on 786-0, > 100 µM (inactive); with A549, > 100 µM (inactive). Moreover, the GI50 is 54.1 µM (inactive) with Malme-3M; > 100 µM (inactive) in the test on OVCAR-8; > 100 µM (inactive) in the test with KM12; 31.6 µM (inactive) in the test with UO-31; > 100 µM (inactive) in the test with SNB-19; 34.3 µM (inactive) in the test with UACC-62. Moreover, the GI50 in the test with SF-268 is > 100 µM (inactive); in the test on MOLT-4, 59.4 µM (inactive).
With `CC1=C(C(=O)NCc2ccccc2)C(c2ccc([N+](=O)[O-])cc2)C(C(=O)NCc2ccccc2)=C(C)N1`, the GI50 with HOP-62 was > 100 µM (inactive); in the test on SF-539, 66.4 µM (inactive); with NCI-H522 it was 28.5 µM (inactive); in the test with CAKI-1, 26.7 µM (inactive); in the test on HCT-116, 21.9 µM (inactive); in the test with SN12C, 76 µM (inactive). The GI50 in the test on 786-0 is 44.2 µM (inactive); with A549, 31.9 µM (inactive); in the test on Malme-3M it was 67.5 µM (inactive); in the test with OVCAR-8, 39.8 µM (inactive); in the test on KM12 it was 34.7 µM (inactive); with UO-31, 20.6 µM (inactive). In addition, the results for the GI50 in the test on SNB-19, in the test on UACC-62 and with SF-268 were 65.2 µM (inactive), 16.8 µM (inactive) and 50.7 µM (inactive), respectively.
Consider `O=C1C(c2ccccc2)=C(c2ccccc2)[C@H](c2ccccc2)[C@]1(Cc1nnn(-c2ccc([N+](=O)[O-])cc2)c1N1CCOCC1)c1ccccc1`, for which the GI50 with HOP-62 is > 37.5 µM (inactive); in the test with SF-539, > 37.5 µM (inactive); in the test with CAKI-1, > 37.5 µM (inactive); in the test with HCT-116, 28.7 µM (inactive); with SN12C, > 37.5 µM (inactive); in the test with 786-0, > 37.5 µM (inactive). For the same compound, the GI50 is > 37.5 µM (inactive) in the test on A549; > 37.5 µM (inactive) in the test on OVCAR-8; 35.9 µM (inactive) with SNB-19; > 37.5 µM (inactive) in the test on UACC-62; 12.1 µM (inactive) in the test on MOLT-4; > 37.5 µM (inactive) in the test with RPMI-8226.
Turning to `N#CC1C2CCC3(CC2CCN1C(=O)c1ccccc1)OCCO3` (stereo unspecified), the GI50 in the test with HOP-62, with SF-539, in the test on HCT-116, with SN12C, in the test on 786-0 and in the test on A549 was > 100 µM (inactive) throughout. The GI50 with Malme-3M, with OVCAR-8, in the test with KM12, with UO-31, in the test on SNB-19 and with UACC-62 was > 100 µM (inactive) each time. The GI50 in the test on SF-268, in the test with MOLT-4 and in the test on RPMI-8226 was > 100 µM (inactive) throughout.
With `Cc1cc(C(=O)NCCN(C)C)c2nc3ccccc3nc2c1`, the GI50 in the test on HOP-62 is 2.17 µM (inactive); in the test on SF-539 it was 4.31 µM (inactive); in the test on NCI-H522, 16.6 µM (inactive); in the test on HCT-116 it was 1.48 µM (inactive); with SN12C, 3.45 µM (inactive); in the test with 786-0, 7.8 µM (inactive). In addition, the GI50 was 3.88 µM (inactive) in the test on A549; 3.21 µM (inactive) in the test with Malme-3M; 4.81 µM (inactive) in the test with OVCAR-8; 3.91 µM (inactive) in the test with KM12; 6.79 µM (inactive) in the test on SNB-19; 6.32 µM (inactive) in the test on UACC-62. For the same compound, the GI50 in the test on MOLT-4 was 0.128 µM (active); in the test with RPMI-8226, 3.15 µM (inactive).
Turning to `Cc1cccc(C(=O)O)c1C(=O)c1cccc2ccccc12`, the GI50 in the test on HOP-62, with NCI-H522, in the test with CAKI-1, in the test with HCT-116, in the test with SN12C and with 786-0 was > 100 µM (inactive) each time. Also, the GI50 in the test with A549, with Malme-3M, in the test with OVCAR-8, in the test on KM12, in the test with UO-31 and in the test with SNB-19 was > 100 µM (inactive) each time. In addition, the GI50 with UACC-62 was > 100 µM (inactive); in the test with SF-268 it was > 100 µM (inactive); in the test with MOLT-4 it was 33.1 µM (inactive).
In the case of `CC(Oc1ccc(OCC2CCCCC2)cc1)C(=O)OCC(=O)c1ccc(-c2ccccc2)cc1` (stereo unspecified), the GI50 in the test with SF-539, in the test with NCI-H522, in the test with HCT-116, in the test with SN12C, in the test with 786-0 and in the test on A549 was > 100 µM (inactive) each time. For the same compound, the GI50 in the test with Malme-3M, with OVCAR-8, with KM12, in the test with UO-31, in the test on SNB-19 and with UACC-62 was > 100 µM (inactive) each time. For the same compound, the GI50 in the test with SF-268 and in the test on MOLT-4 was > 100 µM (inactive) each time.
`CC(C)C(/C=C/c1ccccc1)=N\NC(=O)N/N=C(/C=C/c1ccccc1)C(C)C`: the GI50 in the test on HOP-62 was 40.6 µM (inactive); in the test with SF-539, 31.1 µM (inactive); with NCI-H522, 17.1 µM (inactive); in the test on CAKI-1, 6.98 µM (inactive); with HCT-116, 19.1 µM (inactive); with SN12C, 17.3 µM (inactive). In addition, the GI50 with 786-0 was 18.9 µM (inactive); in the test with A549, 23.1 µM (inactive); in the test with OVCAR-8, 28.8 µM (inactive); in the test with KM12 it was 36.3 µM (inactive); in the test on UO-31, 14.7 µM (inactive); in the test with SNB-19, 37.7 µM (inactive). Further, the GI50 in the test with UACC-62 is 56.9 µM (inactive); in the test on SF-268, 48 µM (inactive); with MOLT-4 it was 16.4 µM (inactive); in the test with RPMI-8226, 24.3 µM (inactive).
Turning to `O=C(CN(Cc1ccccc1)Cc1ccccc1)N1CCc2c([nH]c3ccccc23)C1c1cccnc1` (stereo unspecified), the GI50 was 39 µM (inactive) with HOP-62; 12.2 µM (inactive) with SF-539; 4.8 µM (inactive) in the test with NCI-H522; 4.85 µM (inactive) in the test with CAKI-1; 3.74 µM (inactive) in the test on HCT-116; 2.71 µM (inactive) in the test on SN12C. Besides, the GI50 in the test on 786-0 was 5.87 µM (inactive); in the test on A549, 4.59 µM (inactive); with OVCAR-8, 6.1 µM (inactive); in the test on KM12, 4.14 µM (inactive); in the test on UO-31 it was 2.63 µM (inactive); in the test on SNB-19 it was 19.5 µM (inactive). For the same compound, the GI50 in the test on UACC-62 was 11.1 µM (inactive); with SF-268, 9.51 µM (inactive); with MOLT-4, 2.26 µM (inactive); with RPMI-8226 it was 1.86 µM (inactive).
For the compound `CC(C)(C)C(=O)O[C@@H]1COC2C(O)COC21` (stereo partly specified), the GI50 in the test on HOP-62, in the test on SF-539, in the test on NCI-H522, with CAKI-1, in the test on HCT-116 and in the test with SN12C was > 100 µM (inactive) throughout. Besides, the GI50 in the test on 786-0, in the test on A549, in the test with Malme-3M, in the test with OVCAR-8, in the test on KM12 and in the test on UO-31 was > 100 µM (inactive) in each case. The GI50 in the test on SNB-19 is > 100 µM (inactive); in the test with UACC-62, > 100 µM (inactive); in the test with SF-268, > 100 µM (inactive); in the test on MOLT-4 it was 19.7 µM (inactive).
For `COc1cc2c(cc1OC)[C@]1(O)C(=O)c3ccc4c(c3O[C@@H]1CO2)C[C@H](C(C)(C)O)O4`, the GI50 is > 100 µM (inactive) with HOP-62; > 100 µM (inactive) in the test on SF-539; 5.86 µM (inactive) with NCI-H522; 26.2 µM (inactive) with HCT-116; > 100 µM (inactive) in the test on 786-0; > 100 µM (inactive) in the test on A549. In addition, the GI50 is 8.89 µM (inactive) in the test on Malme-3M; 85.3 µM (inactive) in the test on OVCAR-8; > 100 µM (inactive) in the test on KM12; 7.29 µM (inactive) with UO-31; > 100 µM (inactive) with SNB-19; > 100 µM (inactive) in the test on UACC-62. Further, the GI50 was 48.9 µM (inactive) with MOLT-4 and 36.5 µM (inactive) with RPMI-8226.

Source of the values: ChEMBL document CHEMBL1201862, “PubChem BioAssay data set” (2004).
